Measured values published in PubChem BioAssay (NCI).
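Test compounds were applied to cells in 96-well plates for 48 hours at 5 doses. Here, GI50 denotes the concentration required for 50% inhibition of growth. TGI is the concentration that stops growth completely.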

What was measured:
Assay in all cases: DTP human tumour cell line panel, 48 h
[1] = test system: PC-3 prostate
[2] = test system: HCT-15 colon
[3] = test system: SF-539 CNS
[4] = test system: NCI-H460 lung
[5] = test system: MDA-MB-231 breast
[6] = test system: CCRF-CEM leukemia
[7] = test system: SW-620 colon
[8] = test system: UO-31 renal
[9] = test system: NCI-H226 lung

Structure (SMILES) | TGI [1] | TGI [2] | TGI [3] | TGI [4] | TGI [5] | TGI [6] | TGI [7] | TGI [8] | TGI [9] | GI50 [3]
C#CCN(Cc1ccc2nc(OC)c(OC)nc2c1)c1cc(OC)c(OC)c(OC)c1 | > 91.5 µM | > 87.5 µM | 43.6 µM | > 87.2 µM | 43.5 µM | > 100 µM | > 100 µM | > 89.1 µM | 60.6 µM | 
O=C1CSC2=NC3=C(COC/C3=C\c3ccc(Br)cc3)C(c3ccc(Br)cc3)N12 (stereo not drawn) | > 100 µM | > 100 µM | > 100 µM | > 100 µM | > 100 µM | 61.9 µM | > 100 µM | > 100 µM | > 100 µM | 
COc1ccc(COCC[C@H](C)OC2OC(CO[Si](C)(C)C(C)(C)C)C(OC(=O)CCCN=[N+]=[N-])C(OC(=O)CCCN=[N+]=[N-])C2OC(=O)CCCN=[N+]=[N-])cc1 (stereo partly drawn) | > 100 µM | 88.7 µM | > 100 µM | > 100 µM | > 100 µM | > 100 µM | > 100 µM | 66.2 µM | 89.2 µM | 
COc1cc2ccc1OCc1cccc(n1)COc1ccc(cc1OC)C=Nc1ccc(cc1)N=C2 | > 100 µM | > 100 µM | > 100 µM | > 100 µM | > 100 µM | > 100 µM | > 100 µM | > 100 µM | > 100 µM | 
Cn1c2ccccc2c(=O)c2c(O)cc3c(c21)C=CC1(CCCCC1)O3 | > 10 µM | > 10 µM | > 10 µM | > 10 µM | > 10 µM | > 10 µM | > 10 µM | > 10 µM | > 10 µM | 
C[C@]12CC[C@@H]3c4cc(I)c(O)cc4CC[C@H]3[C@@H]1CC[C@@H]2O | > 56.4 µM | 8.78 µM | 7.76 µM | 16 µM | 25.3 µM | 22.4 µM | 13.5 µM | 17.6 µM | 33.4 µM | 3.02 µM
COc1ccc(N(C(=O)Nc2ccc(Cl)c(Cl)c2)C2c3cccn3C(=O)N2c2ccc(Cl)c(Cl)c2)cc1 (stereo not drawn) | > 100 µM | > 100 µM | > 100 µM | > 100 µM | > 100 µM | > 100 µM | > 100 µM | > 100 µM | > 100 µM | 
C=Cc1ccccc1C1(O)C=CC(OC)(OC)C=C1 | 29.1 µM | 13.1 µM | 6.4 µM | 21.9 µM | 24.8 µM | 8.46 µM | 11.5 µM | 19.8 µM | 80.9 µM | 
O=C1NCN(c2ccccc2)C12CCN(CCCN1CCN(CCOC(c3ccc(F)cc3)c3ccc(F)cc3)CC1)CC2 | 10.9 µM | 5.3 µM | 3.26 µM | 4.32 µM | 4.43 µM | > 100 µM | 7.87 µM | 3.25 µM | 3.84 µM | 
COc1cc2c(c(O)c1OC)C(=O)C(Cc1ccc(O)cc1)CO2 (stereo not drawn) | > 100 µM | > 100 µM | 41.7 µM | > 100 µM | 77.4 µM | > 100 µM | > 100 µM | > 100 µM | > 100 µM | 
C=C1c2nc3ccccc3n2C=C(c2ccc(Cl)cc2)N1c1ccc(OC)cc1 | 45.5 µM | 22.5 µM | 19.2 µM | 18.7 µM | 53.6 µM | > 100 µM | > 100 µM | 19.4 µM | 15.6 µM | 
O=C1c2ccccc2NC(=S)[C@@H]2CCCN12 | > 100 µM | > 100 µM | > 100 µM | > 100 µM | > 100 µM | > 100 µM | > 100 µM | > 100 µM | > 100 µM | 
CC(=O)OC(Cn1cncn1)(Cn1cncn1)c1ccc(Cl)cc1Cl | > 100 µM | > 100 µM | > 100 µM | > 100 µM | > 100 µM | > 100 µM | > 100 µM | > 100 µM | > 100 µM | 
[O-]/[N+](=C\c1ccccc1OC(=S)S)c1ccc(Cl)cc1 | > 100 µM | > 100 µM | > 100 µM | > 100 µM | 34.7 µM | > 100 µM | > 100 µM | 76.6 µM | > 100 µM | 
COC(=O)C1(Cc2ccc3c(c2)CCC3)Cc2ccccc2C1 | > 100 µM | > 100 µM | > 100 µM | > 100 µM | > 100 µM | 30.8 µM | > 100 µM | > 100 µM | > 100 µM | 
CCOC(=O)C#Cc1ccccc1 | 31.3 µM | > 100 µM | 19.3 µM | > 100 µM | 95.1 µM | 12.4 µM | 31.2 µM | 2.11 µM | > 100 µM | 
CC(=O)c1ccc2c(c1)CC1(C2)Cc2ccccc2C1=O (stereo not drawn) | > 100 µM | > 100 µM | > 100 µM | > 100 µM | > 100 µM | > 100 µM | > 100 µM | > 100 µM | > 100 µM | 
CC(C)OC(=O)OCSc1ccccc1N=Cc1cccc([N+](=O)[O-])c1 | > 10 µM | > 10 µM | > 10 µM | > 10 µM | > 10 µM | > 10 µM | > 10 µM | > 10 µM | > 10 µM | 
